Assay results as given in ChEMBL document CHEMBL6127049, “Discovery of the selective and nanomolar inhibitor of DPP-4 more potent than sitagliptin by structure-guided rational design” (Eur J Med Chem, 2024).

Tests used:
Dipeptidyl peptidase 8 = Dipeptidyl peptidase 8 (Homo sapiens, UniProt Q6V1X1); test: Inhibition of DPP8 (unknown origin) assessed as hydrolysis rate using Gly-pro-p-nitroanilide as substrate measured after 20 mins incubation by […] assay
Dipeptidyl peptidase 9 = Dipeptidyl peptidase 9 (Homo sapiens, UniProt Q86TI2); test: Inhibition of DPP9 (unknown origin) assessed as hydrolysis rate using Gly-pro-p-nitroanilide as substrate measured after 20 mins incubation by […] assay
[1] = Acute toxicity in Balb/C mouse assessed as changes in general appearance at 1250 to 2000 mg/kg, po; type: organism-based; settings: in vivo, dose 1250-2000 mg/kg
[2] = Acute toxicity in Balb/C mouse assessed as morphological changes in nose at 1250 to 2000 mg/kg, po; type: organism-based; settings: in vivo, dose 1250-2000 mg/kg
[3] = Acute toxicity in Balb/C mouse assessed as morphological changes in tremors at 1250 to 2000 mg/kg, po; type: organism-based; settings: in vivo, dose 1250-2000 mg/kg
Rattus norvegicus [4] = test: Anti-diabetic activity in STZ-induced type 2 diabetes male Wistar albino rat model assessed as fasting blood glucose level at 20 mg/kg, po measured on day 1; type: functional; settings: time 1 day
Rattus norvegicus [5] = test: Anti-diabetic activity in STZ-induced type 2 diabetes male Wistar albino rat model assessed as fasting blood glucose level at 20 mg/kg, po measured on day 21; type: functional; settings: time 21 day
Rattus norvegicus [6] = test: Anti-diabetic activity in STZ-induced type 2 diabetes male Wistar albino rat model assessed as fasting blood glucose level at 20 mg/kg, po measured on day 28; type: functional; settings: time 28 day
Rattus norvegicus [7] = test: Antihyperlipidemic effect in STZ-induced type 2 diabetes male Wistar albino rat model assessed as total cholesterol level at 10 mg/kg, po measured after 4 weeks (reference value: 227.04 +/- 4.10 mg/dL); type: functional
Rattus norvegicus [8] = test: Antihyperlipidemic effect in STZ-induced type 2 diabetes male Wistar albino rat model assessed as LDL level at 20 mg/kg, po measured after 4 weeks (reference value: 184.65 +/- 4.57 mg/dL); type: functional

Sequence of Dipeptidyl peptidase 9 (Q86TI2 whole entry): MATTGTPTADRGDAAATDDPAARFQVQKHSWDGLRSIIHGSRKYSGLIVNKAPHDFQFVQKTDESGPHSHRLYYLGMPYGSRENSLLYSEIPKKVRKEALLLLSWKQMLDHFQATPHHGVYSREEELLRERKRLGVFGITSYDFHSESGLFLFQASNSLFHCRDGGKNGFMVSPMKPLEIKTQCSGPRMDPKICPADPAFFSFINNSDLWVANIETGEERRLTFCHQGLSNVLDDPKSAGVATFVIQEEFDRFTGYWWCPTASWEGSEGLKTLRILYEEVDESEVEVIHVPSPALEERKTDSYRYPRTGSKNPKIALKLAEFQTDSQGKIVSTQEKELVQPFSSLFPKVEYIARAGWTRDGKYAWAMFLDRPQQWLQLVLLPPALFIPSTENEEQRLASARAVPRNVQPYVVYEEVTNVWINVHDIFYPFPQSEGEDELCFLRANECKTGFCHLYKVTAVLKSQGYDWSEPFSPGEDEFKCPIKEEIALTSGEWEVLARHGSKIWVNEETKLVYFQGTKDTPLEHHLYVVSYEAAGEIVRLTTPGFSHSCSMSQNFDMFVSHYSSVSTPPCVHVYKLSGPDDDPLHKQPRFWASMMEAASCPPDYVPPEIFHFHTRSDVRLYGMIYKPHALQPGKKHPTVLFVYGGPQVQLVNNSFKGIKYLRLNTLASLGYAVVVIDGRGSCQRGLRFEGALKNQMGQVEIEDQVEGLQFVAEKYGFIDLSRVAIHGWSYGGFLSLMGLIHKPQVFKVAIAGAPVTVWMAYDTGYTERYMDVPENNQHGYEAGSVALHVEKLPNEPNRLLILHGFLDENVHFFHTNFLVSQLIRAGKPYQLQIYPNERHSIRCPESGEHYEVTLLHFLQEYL
Sequence of Dipeptidyl peptidase 8 (Q6V1X1 whole entry): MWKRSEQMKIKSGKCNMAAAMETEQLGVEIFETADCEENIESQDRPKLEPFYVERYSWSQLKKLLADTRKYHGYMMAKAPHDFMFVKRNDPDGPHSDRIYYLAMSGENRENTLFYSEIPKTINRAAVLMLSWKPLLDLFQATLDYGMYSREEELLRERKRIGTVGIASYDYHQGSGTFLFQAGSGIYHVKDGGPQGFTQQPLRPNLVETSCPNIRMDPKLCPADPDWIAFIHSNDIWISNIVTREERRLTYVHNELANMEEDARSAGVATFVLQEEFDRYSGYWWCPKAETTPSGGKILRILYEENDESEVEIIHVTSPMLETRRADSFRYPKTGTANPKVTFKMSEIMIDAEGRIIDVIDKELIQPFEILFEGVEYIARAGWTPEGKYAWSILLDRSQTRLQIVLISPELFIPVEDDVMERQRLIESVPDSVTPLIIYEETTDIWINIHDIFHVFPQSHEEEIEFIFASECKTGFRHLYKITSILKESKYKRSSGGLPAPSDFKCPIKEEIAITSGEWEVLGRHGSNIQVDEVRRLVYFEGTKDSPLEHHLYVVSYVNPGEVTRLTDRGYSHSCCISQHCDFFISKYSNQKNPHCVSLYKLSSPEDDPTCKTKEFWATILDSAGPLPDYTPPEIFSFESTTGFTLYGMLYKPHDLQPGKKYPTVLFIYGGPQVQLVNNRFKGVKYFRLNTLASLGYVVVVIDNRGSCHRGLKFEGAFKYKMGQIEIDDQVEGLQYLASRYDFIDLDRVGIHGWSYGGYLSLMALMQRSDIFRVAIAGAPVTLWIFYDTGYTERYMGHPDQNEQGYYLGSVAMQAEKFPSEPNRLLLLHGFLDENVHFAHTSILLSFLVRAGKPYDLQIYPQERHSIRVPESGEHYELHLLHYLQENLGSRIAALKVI

With CC1=C([N+](=O)[O-])C(c2ccc(F)c(F)c2)N=C(N)N1C(=O)CN1Cc2cn(S(C)(=O)=O)nc2C1 (stereo not given) the IC50 (Dipeptidyl peptidase 8) was 2900 nM, the IC50 (Dipeptidyl peptidase 9) was 864 nM and the Activity [1] was “Non-Toxic”. The Activity [2] was “Non-Toxic”, the Activity [3] was “Non-Toxic” and the Activity (Rattus norvegicus [4]) was 294 mg/dL. For the same molecule, the Activity (Rattus norvegicus [5]) was 134 mg/dL, the Activity (Rattus norvegicus [6]) was 117 mg/dL and the Activity (Rattus norvegicus [7]) was 153.02 mg/dL. The Activity (Rattus norvegicus [8]) was 114.54 mg/dL.
